Data as given in paper PMC8322070, “A novel orally active HDAC6 inhibitor T-518 shows a therapeutic potential for Alzheimer’s disease and tauopathy in mice” (Scientific Reports, 2021).

Legend:
[1] = molecular target: T1, human HDAC1 (Homo sapiens, UniProt Q13547); experiment: HDAC enzyme assay (HDAC-Glo I/II), HDAC1; assay type: biochemical; conditions: concentrations up to 10 μM
T1 construct: purchased SignalChem Pharmaceutical Inc
Description: Recombinant HDAC6, HDAC7, HDAC1 were obtained from SignalChem Pharmaceutical Inc. (Richmond, BC, Canada), and recombinant human HDAC4 was prepared at Takeda pharmaceutical company. One μL of T-518 diluted with DMSO was added to 75 μL of assay buffer (24 mM Tris–HCl (pH 7.5), 135 mM NaCl, 0.35 mM KCl, 1 mM MgCl2, 0.01% Tween 20, 0.6 mM GSH) in 384 well plates. Two μL of diluted compounds were added to 384 well plates and 2 μL of recombinant HDAC enzymes was added and then centrifuged at 1000 rpm for 10 s. The final concentrations of each HDAC enzyme were as follows, human HDAC1, 170 pM; human HDAC6, […]; human HDAC4, 68 pM; human HDAC7, 13 pM. After incubation for 60 min at room temperature, 4 μL of HDAC-Glo reagent [HDAC-Glo I/II (Promega) for HDAC6 and HDAC1, HDAC-Glo class IIa (Promega) for HDAC4 and HDAC7] was added to start the reaction. After incubation for 20 min at room temperature, the luminescence was measured by Envision plate reader (PerkinElmer, Waltham, MA, USA). For experiments under the condition of 0 min preincubation, 4 μL of HDAC-Glo reagent was added at first to the 384 well plates including diluted compounds. […] After centrifugation at 1000 rpm for 10 s. and then incubation for 20 min at room temperature, the luminescence was measured by Envision. […] The inhibitory activity of T-518 was expressed as the value of IC50. […]

[2] = system: HDAC1‒5, 7‒9, and 11; experiment: HDAC selectivity panel (Reaction Biology Corporation); assay type: biochemical; conditions: up to 10 μM; heat map Fig. 2A
[3] = system: tubulin acetylation in mouse primary neural cultures; experiment: Tubulin acetylation in mouse primary neural culture (ELISA); assay type: cell-based; conditions: 24 h
Description: (§1) T-518, ACY-738, Ricolinostat, and Tubastatin A were synthesized in Takeda. For in vitro cellular experiments, the compounds were solubilized with DMSO and diluted in the culture medium at the indicated concentrations. For in vivo experiments, the compound was reconstituted in 0.5% methylcellulose and administered orally at the indicated doses. After administration, mouse hippocampus was isolated and homogenized in RIPA extraction buffer (50 mM Tris–HCl, 150 mM NaCl, 1% NP-40, 0.5% sodium deoxycholate, and 0.1% SDS, pH 8.0) supplemented with protease and phosphatase inhibitor cocktail (Thermo Fischer, Waltham, MA, USA). The homogenate was centrifuged at 10,000g for 15 min and the supernatant was taken as the RIPA-soluble fraction.
(§2) Primary cortical neurons were prepared from E14 C57BL/6J mouse embryos (CLIEA Japan, Inc., Tokyo, Japan) using papain-containing Neuron Dissociation Solutions (Fujifilm Wako, Tokyo, Japan). Isolated cells were suspended in Neurobasal Medium containing B-27 (Thermo Fisher) and seeded on poly-D-lysine-coated plates (Corning, NY, USA) under 5% CO2 at 37 °C for 6 days in vitro (DIV) prior to evaluation of HDAC6 inhibitors. Cells were treated with HDAC6 inhibitors at the indicated concentrations for 24 h and lysed in RIPA extraction buffer (50 mM Tris–HCl, 150 mM NaCl, 1% NP-40, 0.5% sodium deoxycholate, and 0.1% SDS, pH 8.0) supplemented with protease and phosphatase inhibitor cocktail (Thermo Fisher).
Acetylated α-tubulin and total tubulin levels were measured by sandwich ELISA. Ninety six-well plates (Microlite2+, Thermo) were coated with α-tubulin capture antibody (1:100) by overnight incubation at 4 °C, washed 4 times with PBS'T, treated with blocking buffer (1% bovine serum albumin in PBS'T) at 37 °C for 2 h, and washed another 4 times with PBS’T. Cell or tissues lysate was added to the wells and plates were incubated at 37 °C for 2 h. Plates were then washed 4 times with PBST, incubated with a detection antibody for acetylated tubulin or total α-tubulin diluted in blocking buffer at 37℃ for 1 h, rewashed 4 more times with PBST, incubated with a mouse secondary antibody conjugated to horseradish peroxidase (HRP) for 30 min, wash 4 times again with PBST, and then incubated with chemiluminescent substrate (SuperSignal).

[4] = system: Histone H3 acetylation in mouse primary neural cultures; experiment: Histone H3 acetylation in mouse primary neural culture (Western blotting); assay type: cell-based; conditions: DIV6 mouse primary neural culture, 3 and 30 μM, 24 h
Description: as §1, §2
Cell lysate or in vivo protein samples were separated by 10% SDS-PAGE, then electrophoretically transferred to 0.45 μm poly-vinylidene difluoride membranes (Millipore). Membranes were blocked for 1 h in Blocking Reagent (TOYOBO, Osaka, Japan), probed with primary antibodies followed by labeling with HRP-coupled secondary antibodies (Amersham, Piscataway, NJ), and then visualized using chemiluminescence reagent (ECL; Amersham). Images were captured using ImageQuant LAS 4000 (GE healthcare Bio-Sciences, Marlborough, MA, USA). Quantitative densitometric analyses were conducted using ImageQuant TL (GE healthcare Bio-Sciences). The protocol was slightly modified for detection of HDAC6 in cortex. Briefly, cerebral cortex was homogenized in RIPA buffer supplemented with 1 μM microstatin, 1 μM MG115, 40 μM Leupeptin, 100 μM ABSF, and 2 mM sodium orthovanadate, separated by 7.5–15% gradient SDS-PAGE and electrophoretically transferred to 0.45 μm poly-vinylidene difluoride membranes (Millipore). Membranes were blocked for 1 h with ECL Prime Blocking Reagent (Amersham, Piscataway, NJ) prior to immunoblotting, visualization, and densitometry as described above.

[5] = system: tubulin acetylation in WT mice or HDAC6 KO mice; experiment: HDAC6 dependency of in vivo tubulin acetylation, WT and HDAC6 KO mice; design: species or system mouse; conditions: 300 mg/kg
From the text: HDAC6 knockout (KO) mice were generated by deletion of a ~ 1.7-kbp region including exon15–20 of the Hdac6 gene using fertilized C57BL/6J eggs and the CRISPR-Cas9 system. […] Male hemizygous KO mice were selected by qPCR detection of the Hdac6 intron16 sequence (Figure S2A). The qPCR primers and probe sequences were as follows: FW primer; 5′-[…]-3′, RV primer; 5′-[…]-3′ and MGB probe; 5′-CCAGGCCATGTTTT-3′.
as §1
Acetylated α-tubulin and total tubulin levels were measured by sandwich ELISA. […]

[6] = Free fraction in a brain (Fu,b); assay type: in vitro ADME; conditions: data not shown

T1 sequence (Q13547 whole entry): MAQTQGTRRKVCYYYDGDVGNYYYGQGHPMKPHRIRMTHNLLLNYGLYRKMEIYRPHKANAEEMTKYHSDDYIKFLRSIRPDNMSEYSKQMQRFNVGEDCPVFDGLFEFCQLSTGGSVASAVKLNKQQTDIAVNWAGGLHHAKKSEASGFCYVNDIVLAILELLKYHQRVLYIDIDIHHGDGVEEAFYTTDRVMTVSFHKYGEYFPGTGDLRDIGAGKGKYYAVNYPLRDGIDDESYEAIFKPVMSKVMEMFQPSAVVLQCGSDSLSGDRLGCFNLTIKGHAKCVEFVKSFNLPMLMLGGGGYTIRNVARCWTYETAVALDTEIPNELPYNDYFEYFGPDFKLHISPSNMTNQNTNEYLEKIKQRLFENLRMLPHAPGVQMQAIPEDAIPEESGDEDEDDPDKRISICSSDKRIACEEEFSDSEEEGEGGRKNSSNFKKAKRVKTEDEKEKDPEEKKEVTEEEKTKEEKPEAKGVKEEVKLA

## O=C1c2cc(-c3nnc(C(F)F)o3)cnc2CN1[C@@H]1CCCC[C@H]1NC(=O)C(F)(F)C(F)(F)F [T-518, N-[(1R,2R)-2-{3-[5-(difluoromethyl)-1,3,4-oxadiazol-2-yl]-5-oxo-5H,6H,7H-pyrrolo[3,4-b]pyridin-6-yl}cyclohexyl]-2,2,3,3,3-pentafluoropropanamide]
[1]
  inhibition of human HDAC1 enzyme activity: did not obviously inhibit
[2]
  inhibition of HDAC1‒5, 7‒9, and 11 in HDAC panel: does not inhibit
[3]; DIV6 mouse primary neural culture, 0.1–10 μM, ELISA
  effect on tubulin acetylation: significantly and concentration-dependently elevates tubulin acetylation
[3]; mouse neurons
  concentration at which elevation of tubulin acetylation is statistically significant: ≥ 0.1 µM
[4]
  effect on Histone H3 acetylation: neither T-518 nor Tubastatin A at 3 and 30 μM demonstrates this activity
[5]; 27-week-old male HDAC6 KO mice
  tubulin acetylation in HDAC6 KO mice: had no effect
[5]; 27-week-old male WT mice
  tubulin acetylation in WT mice: significantly elevated tubulin acetylation
[6]
  fraction unbound: 0.4
